Laboratory results published in US20110152218A1, “CRYSTALLINE PHOSPHOLIPID, METHOD FOR ITS PRODUCTION AND USE IN TREATING DAMAGED TISSUE” (priority 2008, published 2011).

Columns and labels:
HPMC [1] = experiment: Alamar Blue assay of HPMC proliferation in various tested media; format: cell-based, human; settings: 50/50 v/v Hartmanns solution and supplemented M199; 48 hours; single well
Experimental: The suitability of various media for use in forming a dispersion of phospholipid prepared as described in Example 1 or of DPPC was investigated. The Alamar Blue™ assay of HPMC proliferation described in Example 3 was repeated using a single well of cells for each stimulation with a positive control of FCS dispersed in the tested medium, a negative control of the tested medium, and a phospholipid dispersed in the tested medium. The results obtained after 48 hours are shown in FIGS. 13A-13J and discussed below.

[2] = tested on: human peritoneal mesothelial cell (HPMC); experiment: HPMC proliferation, Alamar Blue and MTT assay; format: cell-based; settings: 48 hours and 72 hours; over the tested concentrations in supplemented M199
Experimental: The effect of a phospholipid prepared as described in Example 1 (and/or its constituent compounds) to induce human peritoneal mesothelial cell proliferation was assessed using an Alamar Blue™ assay and an MTT assay.
The Alamar Blue™ assay is designed to measure the proliferation of various cell types by measuring the ability of the cells to metabolise and reduce a REDOX indicator (Alamar Blue™). Reduction of the REDOX indicator results in a change in its fluorescent activity. Therefore the fluorescent activity measured is proportional to cell proliferation.
The MTT Assay measures the proliferations of various cells and is based on the mitochondrial conversion of tetrazolium salt 3-[4,5-dimethyl-thiazol-2-yl]-2,5-diphenyltetrazium bromide (MTT), into an insoluble formazan salt. The resultant colour change is directly related to the number of viable cells.
As described in Morgan L W et al (“Glucose degradation products (GDP) retard re-mesothelialisation independently of D-glucose concentration.” Kidney Int 64:1854-1866, 2003), primary HPMC are isolated from omental tissue biopsies donated by consenting patients undergoing elective abdominal surgery. Cells were grown to approximately 60% confluence in 96 well plates (Falcon) and used at passage 2. All cells were growth arrested in serum free M199 for 24 hours prior to use.
The supplemented M199 medium was prepared as follows. Earle's salt medium M199 was supplemented with 100μ/ml penicillin, 100 μg/ml streptomycin, 2 mM glutamine, 5 μg/ml insulin, 5 μg/ml transferrin and 0.4 μg/ml hydrocortisone and 2 mmol/L N-2-hydroxyethylpiperazine-N′-2ethanesulfonic acid.
The phospholipid prepared as described in Example 1 was prepared as follows. […]
The growth medium was aspirated from each well and then the well was washed once using 200 μl per well of supplemented M199. […] The fluorescent activity of Alamar Blue™ at 540 nm (wavelength) was measured using a Dynex Revalation 96-multiwell plate reader. […]

HPMC [3] = experiment: HPMC ATP bioluminescence assay; format: cell-based, human; settings: 72 hours; single well; over the tested concentrations
Experimental: The viability of HPMC after stimulation with FCS, phospholipid prepared according to Example 1 (Vibrated and Non-vibrated), lysophosphatidic acid (LPA), DPPC, DPPC/LPA, POPC, Curosurf, egg-PG (EPG) and the three Intralipid™ products was determined using an ATP assay. This assay measures the light emitted during the ATP dependant oxidation of luciferin in order to accurately quantify the ATP concentration.
As described in Example 3, primary HPMC are isolated from omental tissue biopsies donated by consenting patients undergoing elective abdominal surgery. Cells are grown to approximately 60% confluence in 96 well plates (Falcon) and used at passage 2. All cells are growth arrested in serum free M199 for 24 hours prior to use.
An ATP Bioluminescence Assay Kit CLS II (Roche Diagnostics, Cat No 1 699 695, 11857300) was used. It contains ATP Standard, Luciferase and distilled water. A 10 mM EDTA solution was prepared by dissolving 1.8612 g EDTA (Fischer Scientific, Code D/0650/60, Batch 0447430, Mr-372.24) in 500 ml H2O (or 3.7224 g in 1 litre). A BAC-extract solution was prepared by dissolving 1 g Benzalkonium Chloride (Sigma-Aldrich, Cat:-23, 442-7, Lot S22104-334) in 1 litre of 10 mM EDTA. […]
To mix, rotate the bottle carefully. • 2) Make up an ATP standard solution having a base concentration of 1.65 μM ATP. […] Use distilled water as the control. • 4) Set the Fluostar Optima plate reader to measure luminescence. Set the Fluostar Optima plate reader pump to inject 20 μl of luciferase into each of the required wells. • 5) Place the plate into the plate reader and measure the relative light units (RLU). • 6) Prepare a standard curve such as that shown in FIG. 16 by plotting a graph of RLU against ATP concentration.
96 well plates from the HPMC proliferation study were defrosted. […] The ATP concentrations were calculated from the RLU of the samples using the standard curve. As an alternative to using an ATP standard curve, data can be normalised to the un-stimulated control and expressed as “ATP (% of control)”.

SMILES: CCCCCCCCCCCCCCCC(=O)OC[C@H](COP(=O)([O-])OCC[N+](C)(C)C)OC(=O)CCCCCCCCCCCCCCC [DPPC, Dipalmitoyl phosphatidyl choline]
- HPMC proliferation response in the first tested medium (HPMC [1]): not as great as DPPC in supplemented M199 by itself
- HPMC proliferation compared to the negative control [2]: no significant stimulation of HPMC proliferation
- HPMC proliferation by ATP assay (ATP % of control) compared to the negative control (HPMC [3]): no increase of HPMC proliferation
